One data set concerns P. falciparum K1. As to the kind of experiment: Asexual blood stage growth inhibition, SYBR Green I, 72 h. Format: cell-based. The following applies: Plasmodium falciparum, mean (standard error) of 3 biological replicates. The protocol:
(§1) Asexual blood stage P. falciparum strains, including 3D7 and drug-resistant field isolates, were cultured using standard conditions in RPMI 1640 with 0.5% Albumax as described previously. EC₅₀ values were determined using a SYBR Green I fluorescence assay after 72 h of compound exposure. EC50 values were derived by nonlinear regression in GraphPad Prism version 10.

For another data set, the system named is P. falciparum Dd2-B2. The data set is described as above. Format: cell-based. The following applies: Plasmodium falciparum, mean (standard error) of 3 biological replicates. The protocol: as §1
For the next data set, the system named is P. falciparum 3D7. The data set is described as above. The class given is cell-based. The following applies: Plasmodium falciparum, mean (standard error) of 3 biological replicates. The protocol: as §1
A further data set has as its system P. falciparum 7G8. The data set is described as above. Format: cell-based. The following applies: Plasmodium falciparum, mean (standard error) of 3 biological replicates. The protocol: as §1
The target of the next data set is T1, CIT (Homo sapiens, UniProt O14578).
T1 construct: purchased Eurofins (DiscoverX)
T1 sequence (O14578 whole entry): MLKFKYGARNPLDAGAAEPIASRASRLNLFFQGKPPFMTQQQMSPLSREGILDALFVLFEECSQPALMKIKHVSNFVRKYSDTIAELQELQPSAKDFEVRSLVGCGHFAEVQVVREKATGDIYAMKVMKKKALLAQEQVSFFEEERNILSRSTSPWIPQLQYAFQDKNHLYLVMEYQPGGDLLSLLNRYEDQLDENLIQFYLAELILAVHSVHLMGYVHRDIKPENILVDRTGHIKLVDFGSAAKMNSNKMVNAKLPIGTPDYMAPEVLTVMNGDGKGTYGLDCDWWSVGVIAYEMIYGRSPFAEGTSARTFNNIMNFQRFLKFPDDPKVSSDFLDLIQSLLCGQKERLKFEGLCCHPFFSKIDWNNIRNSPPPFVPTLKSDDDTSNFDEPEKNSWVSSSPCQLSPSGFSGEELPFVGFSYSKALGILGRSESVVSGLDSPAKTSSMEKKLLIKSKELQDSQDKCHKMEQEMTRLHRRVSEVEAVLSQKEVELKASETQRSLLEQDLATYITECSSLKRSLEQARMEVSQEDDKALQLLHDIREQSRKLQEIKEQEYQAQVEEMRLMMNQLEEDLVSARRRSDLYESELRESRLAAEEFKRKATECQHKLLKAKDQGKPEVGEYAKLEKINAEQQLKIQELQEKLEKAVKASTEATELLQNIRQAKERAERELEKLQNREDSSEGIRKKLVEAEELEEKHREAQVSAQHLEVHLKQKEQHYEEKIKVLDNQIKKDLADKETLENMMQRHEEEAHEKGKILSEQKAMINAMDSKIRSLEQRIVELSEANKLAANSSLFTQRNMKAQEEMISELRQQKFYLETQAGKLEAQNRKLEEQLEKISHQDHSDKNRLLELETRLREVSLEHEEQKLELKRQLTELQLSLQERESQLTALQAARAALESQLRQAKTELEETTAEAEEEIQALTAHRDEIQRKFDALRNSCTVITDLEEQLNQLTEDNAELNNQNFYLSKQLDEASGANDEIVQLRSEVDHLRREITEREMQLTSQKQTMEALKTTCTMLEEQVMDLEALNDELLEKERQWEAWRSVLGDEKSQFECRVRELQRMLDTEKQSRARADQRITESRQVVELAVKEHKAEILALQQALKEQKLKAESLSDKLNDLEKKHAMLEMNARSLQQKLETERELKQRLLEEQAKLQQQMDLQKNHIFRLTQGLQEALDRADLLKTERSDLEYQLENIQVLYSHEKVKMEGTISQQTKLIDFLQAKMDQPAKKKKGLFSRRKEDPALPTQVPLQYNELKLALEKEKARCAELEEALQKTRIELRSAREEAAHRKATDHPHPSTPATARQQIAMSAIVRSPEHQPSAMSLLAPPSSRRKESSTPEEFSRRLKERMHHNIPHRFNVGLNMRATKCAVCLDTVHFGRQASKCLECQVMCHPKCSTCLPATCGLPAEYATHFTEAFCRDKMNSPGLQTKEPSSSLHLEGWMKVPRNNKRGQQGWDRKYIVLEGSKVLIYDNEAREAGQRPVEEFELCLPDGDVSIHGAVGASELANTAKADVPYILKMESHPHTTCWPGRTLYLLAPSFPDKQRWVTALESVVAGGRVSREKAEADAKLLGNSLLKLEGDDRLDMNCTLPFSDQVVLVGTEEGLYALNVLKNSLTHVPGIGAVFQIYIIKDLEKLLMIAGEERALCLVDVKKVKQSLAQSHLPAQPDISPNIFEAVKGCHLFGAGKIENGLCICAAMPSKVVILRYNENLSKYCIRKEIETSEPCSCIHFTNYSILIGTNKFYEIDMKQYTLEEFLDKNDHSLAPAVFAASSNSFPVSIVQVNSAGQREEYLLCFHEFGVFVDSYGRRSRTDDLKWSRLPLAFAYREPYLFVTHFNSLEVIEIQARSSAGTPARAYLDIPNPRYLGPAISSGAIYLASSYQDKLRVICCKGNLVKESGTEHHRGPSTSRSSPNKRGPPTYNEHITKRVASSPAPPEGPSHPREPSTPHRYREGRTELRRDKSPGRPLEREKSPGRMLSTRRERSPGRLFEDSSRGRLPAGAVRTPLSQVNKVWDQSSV
In words: KdElect binding affinity assay. Conditions: for Kd for CIT higher compared to RUPB-61: range over RUPB-18, -34, -69; for Kd: read-out: CIT Experimental Kd. The protocol: (§2) Off-target kinase inhibition was assessed using the DiscoverX scanMAX (Eurofins) panel at 1 µM compound concentration. Binding affinities of CIT, ROCK1 and ROCK2 were evaluated using the KdElect assay (Eurofins).

The next data set has as its target T2, ROCK1 (Homo sapiens, UniProt Q13464).
T2 construct: purchased Eurofins (DiscoverX)
As to the kind of experiment: KdElect binding affinity assay. Conditions: for Kd for ROCK1 higher compared to RUPB-61: range over RUPB-8, -18, -34 and over ROCK1 and ROCK2; for Kd: read-out: ROCK1 Experimental Kd; for ROCK1 Experimental Binding (ΔG): ∆G = -RTln(Kd), 300K. The protocol: as §2

Another data set concerns the target T3, ROCK2 (Homo sapiens, UniProt O75116).
T3 construct: purchased Eurofins (DiscoverX)
As to the kind of experiment: KdElect binding affinity assay. Conditions: for Kd for ROCK2 higher compared to RUPB-61: range over RUPB-8, -18, -34 and over ROCK1 and ROCK2; for Kd: read-out: ROCK2 Experimental Kd. The protocol: as §2

The subject of data set [1] is PfPKG. The following applies: cited from earlier work.
The next data set has as its system P. falciparum TM90_C2B. In words: Asexual blood stage growth inhibition, SYBR Green I, 72 h. The class given is cell-based. The following applies: Plasmodium falciparum, mean (standard error) of 3 biological replicates. The protocol:
as §1

The test system of data set [2] is P. falciparum CamWT and CamC580Y. The following applies: ring-stage assays; cited from earlier work.
The test system of the next data set is P. cynomolgi hypnozoite. In words: Hypnozoite formation in primary simian hepatocytes, high-content imaging. Format: cell-based, Plasmodium cynomolgi. Conditions: Plasmodium cynomolgi, Hepatocyte. The protocol: (§3) Liver stage antimalarial activity was evaluated using sporozoites from P. falciparum (NF54 strain) and P. cynomolgi bastianellii (B strain). P. falciparum-infected Anopheles stephensi mosquitoes were reared at WRAIR, while P. cynomolgi-infected Anopheles dirus mosquitoes were obtained from the Armed Forces Research Institute of Medical Sciences (AFRIMS), Thailand. Sporozoites were isolated by dissecting salivary glands under sterile conditions, followed by gentle mechanical disruption. Freshly isolated sporozoites were immediately used for hepatocyte infection.
(§4) Primary cryopreserved hepatocytes were selected based on host-parasite compatibility: primary simian hepatocytes (lot OQB) for P. cynomolgi and human hepatocytes (lot BGW) for P. falciparum (BioIVT Inc., Baltimore, MD, USA). Cells were thawed according to the manufacturer’s protocol and seeded into 384-well collagen-coated assay plates (Greiner Bio-One, Monroe, NC, USA) using InVitroGro CP plating medium (BioIVT). Seeding densities were optimized for uniform monolayer formation, and hepatocytes were allowed to adhere for 24–48 hours before infection. Sporozoites were added at a 1:1.1 hepatocyte-to-sporozoite ratio within 48 hours post-seeding. Automated robotic systems were used for media changes and compound additions to ensure assay consistency and minimize variability associated with manual pipetting.
(§5) Test compounds (PfPKG inhibitors) and assay drug controls (KDU-691 and tafenoquine) were solubilized in DMSO or PBS and serially diluted into 8- or 12-point, 2- or 3-fold series, achieving final assay concentrations ranging from 20 µM to 0.019 µM. Compounds were introduced using a calibrated pin tool controlled by robotic arms (V&P Scientific), ensuring a 1:1000 dilution into assay wells. Media were replenished daily with fresh drug-containing HCM. […]
(§6) Cells were fixed using 4% paraformaldehyde for 20 minutes at room temperature, followed by three PBS washes, and stored at 4°C until further processing. Parasite detection was performed using species-specific primary antibodies, with P. cynomolgi parasites labeled using a mouse monoclonal anti-Plasmodium GAPDH antibody (1.6 μg/mL, European Malaria Reagent Repository) and P. falciparum parasites detected using a rabbit polyclonal anti-PfHSP70 antibody (1:70 dilution, LS Bio, USA). […]
(§7) High-content imaging was performed using the Operetta CLS system (Revvity) and image analysis was performed with Harmony software version 4.9 (Revvity, Waltham, MA, USA). Images were acquired at 10x or 20x magnification using DAPI and TRITC fluorescence channels. Following the established protocol, parasites were classified as hypnozoites or schizonts based on fluorescence intensity (mean and maximum), morphological features (cell roundness and size), and segmentation criteria. […]

The test system of the next data set is P. cynomolgi schizont. As to the kind of experiment: Schizont formation in primary simian hepatocytes, high-content imaging. Format: cell-based, Plasmodium cynomolgi. Conditions: Plasmodium cynomolgi, Hepatocyte. The protocol:
as §3, §4, §5, §6, §7

Data set [3] can be described thus: Cellular cytotoxicity, hepatocyte nuclear counts. Format: cell-based, simian. Conditions: simian, primary cryopreserved simian hepatocytes (lot OQB); cellular cytotoxicity.
Text: as §4
Test compounds (PfPKG inhibitors) and assay drug controls (KDU-691 and tafenoquine) were solubilized in DMSO or PBS and serially diluted into 8- or 12-point, 2- or 3-fold series, achieving final assay concentrations ranging from 20 µM to 0.019 µM. Compounds were introduced using a calibrated pin tool controlled by robotic arms (V&P Scientific), ensuring a 1:1000 dilution into assay wells. Media were replenished daily with fresh drug-containing HCM. Compounds were added 1-hour post-infection (p.i.) (day 0) and administered daily for 3 days. Cells were fixed on day 6 p.i. of P. falciparum culture and day 8 for P. cynomolgi infected culture, coinciding with liver stage schizont maturation.
High-content imaging was performed using the Operetta CLS system (Revvity) and image analysis was performed with Harmony software version 4.9 (Revvity, Waltham, MA, USA). Images were acquired at 10x or 20x magnification using DAPI and TRITC fluorescence channels. Following the established protocol, parasites were classified as hypnozoites or schizonts based on fluorescence intensity (mean and maximum), morphological features (cell roundness and size), and segmentation criteria. Hepatocyte nuclei were identified using Hoechst 33342 staining. Background signal was captured in uninfected, stained wells and subjected to the same parasite detection algorithm. Estimate erroneous parasite counts were then subtracted from infected well counts. Hepatocyte viability was determined by quantifying nuclear counts per well using Hoechst stain intensity thresholds. […] An in-house built Python-based image analysis script identified parasite objects using predefined fluorescence intensity thresholds. […] Parasite size was quantified by calculating the average object area (µm²) of validated parasite structures per well. […] Dose-response inhibition and IC50 were calculated relative to in-plate negative controls (DMSO-treated wells). […]

In data set [4] the target is PfPKG (Plasmodium falciparum, UniProt Q8I719). As to the kind of experiment: PfPKG enzyme inhibition. The following applies: for IC50: Table 7, spread in parentheses not defined. Format: biochemical.
Chain of PfPKG (Plasmodium falciparum, UniProt Q8I719) (Q8I719 whole entry): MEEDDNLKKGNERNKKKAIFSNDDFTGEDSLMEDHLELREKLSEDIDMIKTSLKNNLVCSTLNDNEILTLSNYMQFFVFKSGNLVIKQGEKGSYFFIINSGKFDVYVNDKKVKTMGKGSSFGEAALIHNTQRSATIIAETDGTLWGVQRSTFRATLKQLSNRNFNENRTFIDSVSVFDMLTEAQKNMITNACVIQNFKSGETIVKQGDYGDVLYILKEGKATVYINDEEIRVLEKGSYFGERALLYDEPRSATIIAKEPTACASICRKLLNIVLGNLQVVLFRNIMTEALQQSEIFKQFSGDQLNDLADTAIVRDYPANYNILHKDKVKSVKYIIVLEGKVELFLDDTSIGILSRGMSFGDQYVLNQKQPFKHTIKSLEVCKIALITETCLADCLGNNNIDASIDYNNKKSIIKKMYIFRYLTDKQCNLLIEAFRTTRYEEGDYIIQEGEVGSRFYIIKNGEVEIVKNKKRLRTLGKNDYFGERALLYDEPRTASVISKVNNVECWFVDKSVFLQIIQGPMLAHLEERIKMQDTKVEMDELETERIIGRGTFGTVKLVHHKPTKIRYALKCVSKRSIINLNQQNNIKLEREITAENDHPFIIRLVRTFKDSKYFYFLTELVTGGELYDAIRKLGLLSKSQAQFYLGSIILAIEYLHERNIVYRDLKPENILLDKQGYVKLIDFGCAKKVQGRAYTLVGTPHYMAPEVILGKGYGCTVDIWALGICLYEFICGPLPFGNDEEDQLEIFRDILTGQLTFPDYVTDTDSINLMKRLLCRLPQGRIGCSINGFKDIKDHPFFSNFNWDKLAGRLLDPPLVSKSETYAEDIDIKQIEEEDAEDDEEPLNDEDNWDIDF
[5] abbreviates: from IC50 ≈ Kd, ∆G = -RTln(Kd), 300K.

T2 sequence (Q13464 whole entry): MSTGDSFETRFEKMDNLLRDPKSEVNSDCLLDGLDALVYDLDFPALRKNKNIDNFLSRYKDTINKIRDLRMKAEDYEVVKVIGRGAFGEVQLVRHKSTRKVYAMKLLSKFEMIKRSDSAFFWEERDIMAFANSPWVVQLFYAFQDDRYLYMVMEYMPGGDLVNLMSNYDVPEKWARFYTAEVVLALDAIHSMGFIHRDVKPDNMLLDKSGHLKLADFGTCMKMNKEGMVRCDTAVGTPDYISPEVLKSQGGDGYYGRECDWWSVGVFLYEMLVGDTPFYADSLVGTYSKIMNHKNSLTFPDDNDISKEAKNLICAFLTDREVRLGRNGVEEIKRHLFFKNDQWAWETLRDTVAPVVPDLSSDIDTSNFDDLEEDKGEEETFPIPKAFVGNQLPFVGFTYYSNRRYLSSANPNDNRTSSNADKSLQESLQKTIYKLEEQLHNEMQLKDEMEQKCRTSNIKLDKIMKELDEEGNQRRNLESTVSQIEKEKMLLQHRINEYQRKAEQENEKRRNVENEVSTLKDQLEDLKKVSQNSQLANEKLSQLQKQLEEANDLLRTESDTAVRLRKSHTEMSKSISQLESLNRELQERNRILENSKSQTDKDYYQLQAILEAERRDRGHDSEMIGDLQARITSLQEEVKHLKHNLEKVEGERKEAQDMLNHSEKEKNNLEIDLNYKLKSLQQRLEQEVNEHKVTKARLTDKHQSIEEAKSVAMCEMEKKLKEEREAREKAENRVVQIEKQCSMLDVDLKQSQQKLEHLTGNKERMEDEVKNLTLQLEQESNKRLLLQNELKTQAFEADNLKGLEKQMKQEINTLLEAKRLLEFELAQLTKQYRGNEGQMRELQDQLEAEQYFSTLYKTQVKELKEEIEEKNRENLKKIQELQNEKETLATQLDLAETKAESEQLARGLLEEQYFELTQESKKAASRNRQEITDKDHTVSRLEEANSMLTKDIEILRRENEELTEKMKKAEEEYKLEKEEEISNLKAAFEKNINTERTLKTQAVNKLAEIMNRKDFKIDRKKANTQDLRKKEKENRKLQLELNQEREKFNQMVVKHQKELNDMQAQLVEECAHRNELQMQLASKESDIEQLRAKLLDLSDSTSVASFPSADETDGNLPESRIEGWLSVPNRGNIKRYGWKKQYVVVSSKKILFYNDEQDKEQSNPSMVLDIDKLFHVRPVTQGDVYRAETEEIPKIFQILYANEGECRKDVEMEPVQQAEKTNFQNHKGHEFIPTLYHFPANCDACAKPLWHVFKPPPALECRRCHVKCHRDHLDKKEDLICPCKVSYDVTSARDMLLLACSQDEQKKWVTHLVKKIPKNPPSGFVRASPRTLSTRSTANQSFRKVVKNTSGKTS

One may read the IC50 as the point on the concentration scale where inhibition reaches its midpoint. Turning to `C[C@H]1[C@@H](O)O[C@@H]2O[C@@]3(C)CC[C@H]4[C@H](C)CC[C@@H]1[C@@]24OO3` [DHA, dihydroartemisinin, reference compound], the IC50 in the data set on P. falciparum K1 was 2 nM; with P. falciparum Dd2-B2, 3 nM; in the data set with P. falciparum 3D7 it was 2 nM; in the data set with P. falciparum 7G8, 0.5 nM.

What is called Kd is the constant that tells how readily two partners part at equilibrium. On to `CN1CCC(c2[nH]c(-c3ccc(F)cc3)c(-c3ccncc3)c2C#N)CC1` [RUPB-18], for which, at CIT, the “Kd for CIT higher compared to RUPB-61” value is reported as 5–125 fold and the Kd amounted to 25 nM. Besides, on ROCK1, the “Kd for ROCK1 higher compared to RUPB-61” value was 40–700 fold, the Kd stood at 700 nM and the “ROCK1 Experimental Binding (ΔG)” value is listed as -8.4 kcal/mol. Besides, on ROCK2, the “Kd for ROCK2 higher compared to RUPB-61” value was 40–700 fold and the Kd was 560 nM.

Consider `C[C@@H]1CN(C)CC[C@H]1c1cc(-c2ccncc2)c(-c2ccc(F)cc2)[nH]1.Cl.Cl` [RUPB-60, 4-{5-[(3S,4R)-1,3-Dimethylpiperidin-4-yl]-2-(4-fluorophenyl)-1H-pyrrol-3-yl}pyridine Dihydrochloride], for which, in the data set on PfPKG [1], the “IC50 against PfPKG variants, RUPB-60 compared with RUPB-61” value was “similar”. In addition, the IC50 in the data set on P. falciparum TM90_C2B is 80 nM; in the data set with P. falciparum K1, 81 nM; in the data set on P. falciparum Dd2-B2 it was 144 nM; with P. falciparum 3D7, 50 nM; in the data set on P. falciparum 7G8 it was 28 nM. The “IC50 against DHA-sensitive CamWT compared with DHA-resistant CamC580Y” value (“IC50 … compared with DHA-resistant CamC580Y” below) in data set [2] is on record as “similar”.

As usually defined, the CC50 is the concentration at which the toxic effect on the cells reaches its halfway point. Read a high CC50 as better tolerance by the cells. `COc1cc(C)c2c(Oc3cccc(C(F)(F)F)c3)c(OC)cc(NC(C)CCCN)c2n1` (centres unmarked) [Tafenoquine, tafenoquine]: the half-maximal inhibitory concentration (IC50) with P. cynomolgi hypnozoite turned out to be 85 nM; in the data set on P. cynomolgi schizont, 41 nM. The molecule also showed a CC50 at 3 days in [3] of 3600 nM.

`CCC(O)(CC)c1cc(-c2[nH]c(C3CCN(C)CC3)cc2-c2ccncc2)ccc1F` [RUPB-73, 3-(2-Fluoro-5-(5-(1-methylpiperidin-4-yl)-3-(pyridin-4-yl)-1H-pyrrol-2-yl)phenyl)pentan-3-ol]: on PfPKG [4], the IC50 worked out at 256 nM.

For `COC(=O)c1cc(-c2[nH]c(C3CCN(C)CC3)cc2-c2ccncc2)ccc1F` [RUPB-72, Methyl 2-fluoro-5-(5-(1-methylpiperidin-4-yl)-3-(pyridin-4-yl)-1H-pyrrol-2-yl)benzoate], on PfPKG [4], the IC50 stood at 17.2 nM.

Consider `COc1ccc(-c2[nH]c(C3CCN(C)CC3)cc2-c2ccncc2)cc1` [RUPB-34], for which, at CIT, the “Kd for CIT higher compared to RUPB-61” value is recorded as 5–125 fold and the Kd was 620 nM. Moreover, on ROCK1, the “Kd for ROCK1 higher compared to RUPB-61” value is 40–700 fold, the Kd was determined as 9200 nM and the “ROCK1 Experimental Binding (ΔG)” value is given as -6.9 kcal/mol. Moreover, on ROCK2, the “Kd for ROCK2 higher compared to RUPB-61” value was 40–700 fold and the Kd was found to be 6400 nM.

For `CN1CCC(c2cc(-c3ccncc3)c(-c3ccc(F)c(C(C)(C)O)c3)[nH]2)CC1` [RUPB-69, 2-(2-Fluoro-5-(5-(1-methylpiperidin-4-yl)-3-(pyridin-4-yl)-1H-pyrrol-2-yl)phenyl)propan-2-ol], on CIT, the “Kd for CIT higher compared to RUPB-61” value is on record as 5–125 fold and the dissociation constant (Kd) stood at 210 nM. Further, the “improvement in PfPKG IC50 compared to RUPB-61” value at PfPKG [4] was 10 fold. Moreover, on PfPKG [4] (setting [5]), the “PfPKG (ΔG)” value was -12.1 kcal/mol and the “PfPKG Experimental Binding (ΔG)” value was -12.1 kcal/mol.

For the molecule `CN1CCC(c2cc(-c3ccncc3C#N)c(-c3ccc(F)cc3)[nH]2)CC1` [RUPB-8], the Kd at CIT is 12 nM. At ROCK1, the “Kd for ROCK1 higher compared to RUPB-61” value was 40–700 fold, the Kd turned out to be 780 nM and the “ROCK1 Experimental Binding (ΔG)” value is given as -8.4 kcal/mol. Further, on ROCK2, the “Kd for ROCK2 higher compared to RUPB-61” value is reported as 40–700 fold and the Kd was 1100 nM.

For `C[C@H]1CN(C)CC[C@H]1c1cc(-c2ccncc2)c(-c2ccc(F)cc2)[nH]1.Cl.Cl` [RUPB-58, 4-{5-[(3R,4R)-1,3-Dimethylpiperidin-4-yl]-2-(4-fluorophenyl)-1H-pyrrol-3-yl}pyridine Dihydrochloride], the IC50 with P. falciparum TM90_C2B stood at 122 nM; in the data set with P. falciparum K1, 239 nM; with P. falciparum Dd2-B2, 467 nM; with P. falciparum 3D7, 170 nM; in the data set on P. falciparum 7G8 it was 57 nM. Also, the “IC50 … compared with DHA-resistant CamC580Y” value in [2] is “similar”.

Take `C[C@H]1CN(C)CC[C@@H]1c1cc(-c2ccncc2)c(-c2ccc(F)cc2)[nH]1.Cl.Cl` [RUPB-59, 4-{5-[(3R,4S)-1,3-Dimethylpiperidin-4-yl]-2-(4-fluorophenyl)-1H-pyrrol-3-yl}pyridine Dihydrochloride]: the IC50 amounted to 120 nM with P. falciparum TM90_C2B; 148 nM in the data set with P. falciparum K1; 353 nM in the data set with P. falciparum Dd2-B2; 80 nM with P. falciparum 3D7; 135 nM with P. falciparum 7G8. The “IC50 … compared with DHA-resistant CamC580Y” value in [2] is “similar”.

These data come from article PMC13422867, “An orally available PfPKG inhibitor blocks Plasmodium’s infection of the liver” (PLOS Pathogens, 2026).
